Data published in ChEMBL document CHEMBL5233212, “Recent advance in the development of novel, selective and potent FGFR inhibitors” (Eur J Med Chem, 2020).
pIC50: −log10 of the molar value. Values belong to the molecule of their own block, whether it stands above or below them.

Columns and labels:
[1] = biological target: T1, Fibroblast growth factor receptor 1 (Homo sapiens, UniProt P11362); assay: Inhibition of human recombinant FGFR1 using Poly (Glu, Tyr)4:1 as substrate at 10 nM incubated for 90 mins in presence of ATP by ELISA based spectrophotometer assay
Target sequence in this assay (P11362 22-822 limits assumed): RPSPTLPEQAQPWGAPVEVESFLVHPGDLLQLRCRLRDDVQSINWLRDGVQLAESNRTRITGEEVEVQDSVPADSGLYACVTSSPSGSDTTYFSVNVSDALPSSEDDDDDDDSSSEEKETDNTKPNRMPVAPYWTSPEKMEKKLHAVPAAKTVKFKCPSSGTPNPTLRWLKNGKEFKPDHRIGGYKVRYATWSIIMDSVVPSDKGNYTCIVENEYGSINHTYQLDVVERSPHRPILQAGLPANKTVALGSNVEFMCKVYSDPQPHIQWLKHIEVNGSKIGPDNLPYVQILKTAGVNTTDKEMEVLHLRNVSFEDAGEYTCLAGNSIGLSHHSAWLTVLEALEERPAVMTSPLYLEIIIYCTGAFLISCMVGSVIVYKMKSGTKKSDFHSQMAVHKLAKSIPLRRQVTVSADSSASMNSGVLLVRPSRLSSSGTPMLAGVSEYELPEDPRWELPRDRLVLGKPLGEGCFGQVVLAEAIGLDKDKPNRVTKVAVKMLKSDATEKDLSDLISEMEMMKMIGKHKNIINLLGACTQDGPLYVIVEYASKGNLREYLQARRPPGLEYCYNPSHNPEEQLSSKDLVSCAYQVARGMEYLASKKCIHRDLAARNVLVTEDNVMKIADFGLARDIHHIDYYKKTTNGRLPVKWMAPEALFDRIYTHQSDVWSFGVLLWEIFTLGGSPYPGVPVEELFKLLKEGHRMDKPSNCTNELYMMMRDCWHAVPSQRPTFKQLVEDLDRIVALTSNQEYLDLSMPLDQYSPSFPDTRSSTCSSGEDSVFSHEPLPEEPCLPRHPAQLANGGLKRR

[2] = biological target: T1, Fibroblast growth factor receptor 1; assay: Inhibition of FGFR1 (unknown origin) in presence of ATP by caliper mobility shift assay
Target sequence in this assay (P11362 whole entry): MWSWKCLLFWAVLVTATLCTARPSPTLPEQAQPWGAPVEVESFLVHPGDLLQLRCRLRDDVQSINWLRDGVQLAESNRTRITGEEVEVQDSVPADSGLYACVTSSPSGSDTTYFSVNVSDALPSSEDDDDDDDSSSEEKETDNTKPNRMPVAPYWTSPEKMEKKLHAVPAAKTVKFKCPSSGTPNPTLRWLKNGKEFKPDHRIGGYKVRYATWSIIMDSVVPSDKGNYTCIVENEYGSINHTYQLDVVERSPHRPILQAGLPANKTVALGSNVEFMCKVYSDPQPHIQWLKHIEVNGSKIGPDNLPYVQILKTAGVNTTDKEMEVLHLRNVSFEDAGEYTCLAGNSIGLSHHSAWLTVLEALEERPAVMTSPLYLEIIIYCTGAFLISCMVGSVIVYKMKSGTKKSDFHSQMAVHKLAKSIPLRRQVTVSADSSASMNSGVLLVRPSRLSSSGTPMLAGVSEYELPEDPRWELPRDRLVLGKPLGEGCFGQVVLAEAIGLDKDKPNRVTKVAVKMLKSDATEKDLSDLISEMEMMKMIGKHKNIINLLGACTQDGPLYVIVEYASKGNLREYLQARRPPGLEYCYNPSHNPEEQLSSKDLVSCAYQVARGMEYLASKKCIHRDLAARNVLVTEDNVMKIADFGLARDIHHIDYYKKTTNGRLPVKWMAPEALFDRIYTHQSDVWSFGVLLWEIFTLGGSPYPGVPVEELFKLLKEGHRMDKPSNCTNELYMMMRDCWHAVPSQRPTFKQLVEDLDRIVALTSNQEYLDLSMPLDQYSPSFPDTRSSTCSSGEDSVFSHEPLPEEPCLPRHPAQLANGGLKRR

[3] = biological target: Tyrosine-protein kinase BTK (Homo sapiens, UniProt Q06187); assay: Inhibition of human BTK (382 to 659 residues) expressed in baculovirus infected Sf21 insect cells preincubated for 15 mins followed by ATP addition and measured upto 180 mins by microfluidic capillary electrophoresis analysis
Sequence of Tyrosine-protein kinase BTK (Q06187 whole entry, the tested form may be a part): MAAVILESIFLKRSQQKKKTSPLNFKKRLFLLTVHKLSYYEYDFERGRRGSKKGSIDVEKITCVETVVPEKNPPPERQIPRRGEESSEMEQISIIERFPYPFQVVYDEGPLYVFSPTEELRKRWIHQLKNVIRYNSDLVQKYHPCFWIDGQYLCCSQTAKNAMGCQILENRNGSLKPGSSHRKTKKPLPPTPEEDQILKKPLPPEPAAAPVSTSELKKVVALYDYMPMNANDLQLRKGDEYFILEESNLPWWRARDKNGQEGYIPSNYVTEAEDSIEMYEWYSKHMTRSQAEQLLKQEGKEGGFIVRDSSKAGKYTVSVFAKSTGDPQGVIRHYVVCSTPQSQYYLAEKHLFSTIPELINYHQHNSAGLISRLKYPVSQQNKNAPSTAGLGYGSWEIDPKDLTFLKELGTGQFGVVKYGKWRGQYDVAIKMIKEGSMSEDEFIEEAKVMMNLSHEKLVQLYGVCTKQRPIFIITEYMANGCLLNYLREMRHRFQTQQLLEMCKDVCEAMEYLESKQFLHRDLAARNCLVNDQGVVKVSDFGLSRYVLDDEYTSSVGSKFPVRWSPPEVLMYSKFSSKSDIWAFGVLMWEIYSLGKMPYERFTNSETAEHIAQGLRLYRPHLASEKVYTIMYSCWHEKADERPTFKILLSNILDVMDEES

RT-112 = assay: Antiproliferative activity against human RT-112 cells assessed as inhibition of cell growth incubated for 72 hrs by MTT colorimetric assay; format: functional, cell-based; settings: RT-112, 72 h
NCI-H1581 = assay: Antiproliferative activity against human NCI-H1581 cells assessed as inhibition of cell growth incubated for 72 hrs by MTT colorimetric assay; format: functional, cell-based; settings: NCI-H1581, 72 h
[4] = Antiproliferative activity against human KATO III stomach cancer cell line assessed as inhibition of cell growth incubated for 72 hrs by MTT colorimetric assay; format: functional, cell-based
KG-1 = assay: Antiproliferative activity against human KG-1 cells assessed as inhibition of cell growth incubated for 72 hrs by MTT colorimetric assay; format: functional, cell-based; settings: KG-1, 72 h
SNU-16 = assay: Antiproliferative activity against human SNU-16 cells assessed as inhibition of cell growth incubated for 72 hrs by MTT colorimetric assay; format: functional, cell-based; settings: SNU-16, 72 h
[5] = biological target: Fibroblast growth factor receptor (Homo sapiens, UniProt P22607+P11362+P22455+P21802); assay: Inhibition of FGFR (unknown origin) using […] incubated for 60 mins by Kinase-Glo Plus luminescence assay; format: protein assay

inhibition [1]: > 90%
Structure (SMILES): Cn1cc(-c2cnc3cnn(S(=O)(=O)c4ccccc4)c3n2)cn1

pIC50 [2]: 5.52
Structure (SMILES): CCC(=O)Oc1ccc(/C=C2\CC/C(=C\c3ccc(OC(=O)CC)c(OC)c3)C2=O)cc1OC

inhibition [1]: 93.3%
Structure (SMILES): O=S(=O)(c1cn(CCF)cn1)n1ncc2ncc(-c3cn[nH]c3)nc21

pIC50 [3]: 9.30
Structure (SMILES): CNc1ncc2cc(-c3cc(OC)cc(OC)c3Cl)c(=O)n(CCc3ccc(NC(=O)/C(C#N)=C/C(C)(C)N)cc3)c2n1

pIC50 (NCI-H1581): 6.41 | pIC50 (SNU-16): 7.61
Structure (SMILES): Cc1n[nH]c2ccc(-c3cc(N[C@@H](CO)c4ccccc4)cnc3-c3cc(F)ccc3O)cc12
pIC50 (RT-112): 6.91 | pIC50 [4]: 6.81 | pIC50 (KG-1): 7.84

IC50 [5]: 9590 nM
Structure (SMILES): Cc1nc(OCC(=O)N/N=C/c2ccc(Cl)cc2)c2c(C)nn(-c3ccccc3)c2n1

pIC50 [2]: 5.59
Structure (SMILES): COc1cc(/C=C2\CC/C(=C\c3ccc(OC(=O)C(C)C)c(OC)c3)C2=O)ccc1OC(=O)C(C)C
